Laboratory results: patent US11957687B2 (REGENERON PHARMACEUTICALS, INC., priority 2019, dated 2024)

These molecules were tested against HSD17B13 (Homo sapiens (Human), UniProt Q7Z5P4) (assay: HSD17B13 enzymatic inhibition assay (150 nM or 50 nM HSD17B13)). Conditions: 50 nM HSD17B13; read-out: Inhibition of 50 nM of HSD17B13 IC50.
Assay type: biochemical

HSD17B13, sequence (Q7Z5P4 other isoform, or with tags, fused parts or gaps): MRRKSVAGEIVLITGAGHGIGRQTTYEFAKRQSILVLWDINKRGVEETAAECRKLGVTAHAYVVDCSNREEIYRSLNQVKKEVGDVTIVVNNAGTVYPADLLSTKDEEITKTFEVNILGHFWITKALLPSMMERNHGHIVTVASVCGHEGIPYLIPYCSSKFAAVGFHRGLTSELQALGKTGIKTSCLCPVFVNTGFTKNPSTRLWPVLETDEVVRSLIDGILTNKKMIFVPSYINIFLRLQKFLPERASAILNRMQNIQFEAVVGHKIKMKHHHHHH

Q: With Cc1cccc(C(NC(=O)c2ccc(C(F)(F)F)[nH]c2=O)c2ccccc2)c1S(C)(=O)=O (stereo not drawn) [Compound 453, N-((3-methyl-2-(methylsulfonyl)phenyl) (phenyl)methyl)-2-oxo-6-(trifluoromethyl)-1,2-dihydropyridine-3-carboxamide] as the molecule, how does the IC50 read?
A: Its IC50 is 3230 nM.

Q: How did the IC50 turn out when Cc1ccc2c(c1)Sc1cc(C)ccc1C2NC(=O)c1cc(N2CCN(C)CC2)c(C(F)(F)F)[nH]c1=O [Compound 427, N-(3,6-dimethyl-9H-thioxanthen-9-yl)-5-(4-methylpiperazin-1-yl)-2-oxo-6-(trifluoromethyl)-1,2-dihydropyridine-3-carboxamide] was run?
A: Its IC50 is 130 nM.

Q: With Cc1ccc2c(NC(=O)c3ccc(C(F)(F)F)[nH]c3=O)cn(C)c2c1 [Compound 379, N-(1,6-dimethyl-1H-indol-3-yl)-2-oxo-6-(trifluoromethyl)-1,2-dihydropyridine-3-carboxamide] as the molecule, how does the IC50 read?
A: Its IC50 is 4820 nM.

Q: Cc1ccc2c(c1)Oc1cccnc1C2NC(=O)c1ccc(C(F)(F)F)[nH]c1=O (stereo not drawn) [Compound 326, N-(7-methyl-10H-chromeno[3,2-b]pyridin-10-yl)-2-oxo-6-(trifluoromethyl)-1,2-dihydropyridine-3-carboxamide] was tested. Which IC50 did it give?
A: The IC50 was 60 nM.

Q: For COc1ccccc1C(NC(=O)c1ccc(C(F)(F)F)[nH]c1=O)c1ccccc1 (stereo not drawn) [Compound 8, N-((2-methoxyphenyl)(phenyl)methyl)-2-oxo-6-(trifluoromethyl)-1,2-dihydropyridine-3-carboxamide], which IC50 is on record?
A: The IC50 was 1610 nM.

Q: For O=C(NC1c2ccccc2Sc2ccccc21)c1ccc(C(F)(F)F)[nH]c1=O [Compound 10A, 2-oxo-N-(9H-thioxanthen-9-yl)-6-(trifluoromethyl)-1,2-dihydropyridine-3-carboxamide], which IC50 is on record?
A: The IC50 was 1460 nM.

Q: Which IC50 does the source give for Cc1cccc(C(NC(=O)c2ccc(C(F)(F)F)[nH]c2=O)c2cccc(C)c2)c1 [Compound 62, N-(di-m-tolylmethyl)-6-(trifluoromethyl)-2-oxo-1,2-dihydropyridine-3-carboxamide] here?
A: Its IC50 is 1110 nM.

Q: How did the IC50 turn out when COc1ccc2c(c1)CC(C)CC2NC(=O)c1ccc(C(F)(F)F)[nH]c1=O (stereo not drawn) [Compound 389, N-(6-methoxy-3-methyl-1,2,3,4-tetrahydronaphthalen-1-yl)-2-oxo-6-(trifluoromethyl)-1,2-dihydropyridine-3-carboxamide] was run?
A: Its IC50 is 580 nM.

Q: CC[C@H]1C[C@@H](NC(=O)c2ccc(C(F)(F)F)[nH]c2=O)c2cc(C)ccc2N1 [Compound 365, N-((2S,4R)-2-ethyl-6-methyl-1,2,3,4-tetrahydroquinolin-4-yl)-2-oxo-6-(trifluoromethyl)-1,2-dihydropyridine-3-carboxamide] was tested. Which IC50 did it give?
A: Its IC50 is 160 nM.

Q: For CCC(NC(=O)c1ccc(C(F)(F)F)[nH]c1=O)c1ccc(Cl)cc1 (stereo not drawn) [Compound 22A, N-(1-(4-chlorophenyl)propyl)-2-oxo-6-(trifluoromethyl)-1,2-dihydropyridine-3-carboxamide], which IC50 is on record?
A: The IC50 was 2960 nM.

Q: With CCc1cccc(C(NC(=O)c2ccc(C(F)(F)F)[nH]c2=O)c2ccccc2OC)c1 (stereo not drawn) [Compound 454, N-((3-ethylphenyl)(2-methoxyphenyl)methyl)-2-oxo-6-(trifluoromethyl)-1,2-dihydropyridine-3-carboxamide] as the molecule, how does the IC50 read?
A: Its IC50 is 1810 nM.

Q: For Cc1cc(C(=O)NC2c3ccc(Cl)cc3Oc3cccc(Cl)c32)c(=O)[nH]c1C(F)(F)F (stereo not drawn) [Compound 211, N-(1,6-dichloro-9H-xanthen-9-yl)-5-methyl-2-oxo-6-(trifluoromethyl)-1,2-dihydropyridine-3-carboxamide], which IC50 is on record?
A: Its IC50 is 870 nM.

Q: O=C(NC(c1ccccc1)c1ccc(C2CCOC2)cc1)c1ccc(C(F)(F)F)[nH]c1=O (stereo not drawn) [Compound 86, N-(phenyl(4-(tetrahydrofuran-3-yl)phenyl)methyl)-2-oxo-6-(trifluoromethyl)-1,2-dihydropyridine-3-carboxamide] was tested. Which IC50 did it give?
A: Its IC50 is 1940 nM.

Q: With CCCC1CC(NC(=O)c2ccc(C(F)(F)F)[nH]c2=O)c2cc(C)ccc2O1 (stereo not drawn) [Compound 403, N-(6-methyl-2-propylchroman-4-yl)-2-oxo-6-(trifluoromethyl)-1,2-dihydropyridine-3-carboxamide] as the molecule, how does the IC50 read?
A: Its IC50 is 110 nM.

Same assay, conditions: 150 nM HSD17B13; read-out: Inhibition of 150 nM of HSD17B13 IC50

Q: How did the IC50 turn out when COc1ccccc1C(NC(=O)c1ccc(C(F)(F)F)[nH]c1=O)c1ccccc1 (stereo not drawn) [Compound 8, N-((2-methoxyphenyl)(phenyl)methyl)-2-oxo-6-(trifluoromethyl)-1,2-dihydropyridine-3-carboxamide] was run?
A: The IC50 was 3230 nM.
